The target of this assay is 11β-HSD1 (Homo sapiens (Human), UniProt P28845). Briefly: Biological Test Example 1: inhibition of a microsomal preparation of 11β-HSD1 (SPA). It counts as biochemical. Conditions: for inhibition at 0.1 µM: read-out: Average % inhibition at 100 nM, Biological Test Example 1; for inhibition at 0.111 µM: read-out: Average % inhibition at 111 nM. Here is the method: All reactions were carried out at rt in 96 well clear flexible PET Microbeta plates (PerkinElmer). […] After a 10 minute pre-incubation, 50 μL of enzyme solution containing microsomes isolated from CHO cells overexpressing human 11-HSD1 (10-20 μg/ml of total protein) was added, and the plates were incubated for 90 minutes at rt. The reaction was stopped by adding 50 μl of the SPA beads suspension containing 10 μM […], 5 mg/ml protein A coated YSi SPA beads (GE Healthcare) and 3.3 μg/ml of anti-cortisol antibody (East Coast Biologics) in Superblock buffer (Bio-Rad). The plates were shaken for 120 minutes at rt, and the SPA signal corresponding to [^3H]cortisol was measured on a Microbeta plate reader.
Sequence of 11β-HSD1 (P28845 whole entry): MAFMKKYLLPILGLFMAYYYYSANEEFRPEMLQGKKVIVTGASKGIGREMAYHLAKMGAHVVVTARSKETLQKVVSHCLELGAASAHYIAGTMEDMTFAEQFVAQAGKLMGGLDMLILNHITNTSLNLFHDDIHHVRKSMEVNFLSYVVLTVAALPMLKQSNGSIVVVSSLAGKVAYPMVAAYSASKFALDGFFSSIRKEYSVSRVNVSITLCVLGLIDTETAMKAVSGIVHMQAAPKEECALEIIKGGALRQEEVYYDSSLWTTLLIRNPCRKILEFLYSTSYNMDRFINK

Setting [1] is: Biological Test Example 1, 100 nM compound.
[2] abbreviates: Biological Test Example 1, microsomes from CHO cells overexpressing human 11β-HSD1, read-out: IC50 Range.
[3] abbreviates: Biological Test Example 1, read-out: IC50.
The mark [4] stands for this setting: Biological Test Example 1, 111 nM compound.

Where two headings read alike, the source gives them in different places. Bounds are passed on as bounds.

As to `COc1cnc(C2CCN(C(=O)OC3C4CC5CC3CC(C(N)=O)(C5)C4)C2)nc1` (single isomer, unassigned) [EXAMPLE 44 Isomer 1, 1-carbamoyl-4-adamantyl 3-(5-methoxypyrimidin-2-yl)pyrrolidine-1-carboxylate], the “Average % inhibition at 100 nM” value under setting [1] worked out at 95.2%.
On the same count and under the same terms, the same measure for `COc1cnc(C2CCN(C(=O)OC3C4CC5CC3CC(C(N)=O)(C5)C4)C2)nc1` (single isomer, unassigned) [EXAMPLE 44 Isomer 2, 1-carbamoyl-4-adamantyl 3-(5-methoxypyrimidin-2-yl)pyrrolidine-1-carboxylate]: 2.4%.
Turning to `O=C(OC1C2CC3CC1CC(C(=O)O)(C3)C2)N1CCC(c2ncc(Cl)cn2)C1` (single isomer, unassigned) [EXAMPLE 46 Isomer 1, trans-4-((3-(5-chloropyrimidin-2-yl)pyrrolidine-1-carbonyl)oxy)adamantane-1-carboxylic acid], under setting [1], the “Average % inhibition at 100 nM” value came out at 22.4%. For the same compound, the IC50 – broadly, the concentration needed to halve the response being measured – is > 100 nM under setting [2] and > 100 nM under setting [3].
For `O=C(OC1C2CC3CC1CC(C(=O)O)(C3)C2)N1CCC(c2ncc(Cl)cn2)C1` (single isomer, unassigned) [EXAMPLE 46 Isomer 2, cis-4-((3-(5-chloropyrimidin-2-yl)pyrrolidine-1-carbonyl)oxy)adamantane-1-carboxylic acid], the “Average % inhibition at 100 nM” value under setting [1] came out at 3.8%. Moreover, the IC50 is > 100 nM under setting [2] and > 100 nM under setting [3].
For `NC(=O)c1cnc(C2CCN(C(=O)OC3C4CC5CC3CC(C(N)=O)(C5)C4)C2)nc1` (single isomer, unassigned) [EXAMPLE 47 Isomer 1, 1-carbamoyl-4-adamantyl 3-(5-carbamoylpyrimidin-2-yl)pyrrolidine-1-carboxylate], the “Average % inhibition at 100 nM” value under setting [1] is 6.1%. The IC50 is, setting by setting: under setting [2], > 100 nM; under setting [3], > 100 nM.
As for `NC(=O)c1cnc(C2CCN(C(=O)OC3C4CC5CC3CC(C(N)=O)(C5)C4)C2)nc1` (single isomer, unassigned) [EXAMPLE 47 Isomer 2, 1-carbamoyl-4-adamantyl 3-(5-carbamoylpyrimidin-2-yl)pyrrolidine-1-carboxylate], the “Average % inhibition at 100 nM” value under setting [1] worked out at 55.6%. The IC50 by setting is: under setting [2], < 100 nM; under setting [3], 91.6 nM.
Consider `NC(=O)C12CC3CC(C1)C(OC(=O)N1CCC(c4nccc(C(F)(F)F)n4)C1)C(C3)C2` (single isomer, unassigned) [EXAMPLE 48 Isomer 1, trans-1-carbamoyl-4-adamantyl 3-(4-(trifluoromethyl)pyrimidin-2-yl)pyrrolidine-1-carboxylate], for which, under setting [1], the “Average % inhibition at 100 nM” value came out at 94.5%.
Turning to `NC(=O)C12CC3CC(C1)C(OC(=O)N1CCC(c4nccc(C(F)(F)F)n4)C1)C(C3)C2` (single isomer, unassigned) [EXAMPLE 48 Isomer 2, cis-1-carbamoyl-4-adamantyl 3-(4-(trifluoromethyl)pyrimidin-2-yl)pyrrolidine-1-carboxylate], the “Average % inhibition at 100 nM” value under setting [1] is 16.1%.
Regarding `Cn1ccc(-c2cnc(C3CCN(C(=O)OC4C5CC6CC4CC(C(N)=O)(C6)C5)C3)nc2)cc1=O` (single isomer, unassigned) [EXAMPLE 57 Isomer 2, 1-carbamoyl-4-adamantyl 3-(5-(1-methyl-2-oxo-1,2-dihydropyridin-4-yl)pyrimidin-2-yl)pyrrolidine-1-carboxylate], the IC50 is, setting by setting: under setting [2], > 100 nM; under setting [3], > 100 nM. Besides, the inhibition (as a rule, the drop in the measured response relative to a control, in per cent) at 0.1 µM (100 nM compound) was determined as 18.1%.
Consider `Cn1cc(-c2cnc(C3CCN(C(=O)OC4C5CC6CC4CC(C(N)=O)(C6)C5)C3)nc2)ccc1=O` (single isomer, unassigned) [EXAMPLE 58 Isomer 1, trans-1-carbamoyl-4-adamantyl 3-(5-(1-methyl-6-oxo-1,6-dihydropyridin-3-yl)pyrimidin-2-yl)pyrrolidine-1-carboxylate], for which the “Average % inhibition at 100 nM” value under setting [1] was determined as 69.4%. Further, the IC50 was < 100 nM under setting [2] and 33.3 nM under setting [3].
With `Cn1cc(-c2cnc(C3CCN(C(=O)OC4C5CC6CC4CC(C(N)=O)(C6)C5)C3)nc2)ccc1=O` (single isomer, unassigned) [EXAMPLE 58 Isomer 2, 1-carbamoyl-4-adamantyl 3-(5-(1-methyl-6-oxo-1,6-dihydropyridin-3-yl)pyrimidin-2-yl)pyrrolidine-1-carboxylate], the “Average % inhibition at 100 nM” value under setting [1] worked out at 3.8%. Further, the IC50 is > 100 nM under setting [2] and > 100 nM under setting [3].
Regarding `Cn1ccc(-c2cnc(C3CCN(C(=O)OC4C5CC6CC4CC(C(N)=O)(C6)C5)C3)nc2)cc1=O` (single isomer, unassigned; isomer 1) [EXAMPLE 57 Isomer 1, trans-1-carbamoyl-4-adamantyl 3-(5-(1-methyl-2-oxo-1,2-dihydropyridin-4-yl)pyrimidin-2-yl)pyrrolidine-1-carboxylate], the “Average % inhibition at 100 nM” value is 65.0%. The IC50 (read-out: IC50) came out at 50.5 nM. Moreover, the IC50 (read-out: IC50 Range) is < 100 nM.
For the compound `Cc1nc2cc(F)ccc2n1C1CCN(C(=O)OC2C3CC4CC2CC(C(N)=O)(C4)C3)C1` (single isomer, unassigned; isomer 1) [EXAMPLE 74 Isomer 1], the “Average % inhibition at 100 nM” value is reported as 91.9%. The 50% inhibitory concentration (IC50) (read-out: IC50) amounted to 2.22 nM. For the same compound, the half-maximal inhibitory concentration (IC50) (read-out: IC50 Range) was < 100 nM.
On to `Cc1nc2cc(F)ccc2n1C1CCN(C(=O)OC2C3CC4CC2CC(C(N)=O)(C4)C3)C1` (single isomer, unassigned; isomer 2) [EXAMPLE 74 Isomer 2], for which the “Average % inhibition at 100 nM” value came to 83.2%. Moreover, the IC50 (read-out: IC50) worked out at 16.6 nM. Besides, under “read-out: IC50 Range”, the half-maximal inhibitory concentration (IC50) is < 100 nM.
Consider `NC(=O)[C@]12CC3CC(C1)[C@@H](OC(=O)N1CC[C@H](Oc4ncc(F)cc4F)C1)C(C3)C2` [EXAMPLE 2, (S)-(trans-(1-carbamoyl-4-adamantyl)) 3-(3,5-difluoropyridin-2-yloxy)pyrrolidine-1-carboxylate], for which the IC50 reads like this: under setting [2], < 100 nM; under setting [3], 0.68 nM. The inhibition at 0.1 µM (100 nM compound) is 96.2%.
For the compound `NC(=O)[C@]12CC3CC(C1)[C@@H](OC(=O)N1CC[C@@H](Oc4ccc5nccn5n4)C1)C(C3)C2` [EXAMPLE 3, (R)-(trans-(1-carbamoyl-4-adamantyl)) 3-(imidazo[1,2-b]pyridazin-6-yloxy)pyrrolidine-1-carboxylate], the IC50 is < 100 nM under setting [2] and 6.39 nM under setting [3]. Further, the inhibition at 0.1 µM (100 nM compound) stood at 92.1%.
Consider `O=C(O[C@H]1C2CC3CC1C[C@](O)(C3)C2)N1CC[C@@H](Oc2ccc(C(F)(F)F)cn2)C1` [EXAMPLE 4, (R)-(trans-(1-hydroxy-4-adamantyl)) 3-(5-(trifluoromethyl)pyridin-2-yloxy)pyrrolidine-1-carboxylate], for which the IC50 was < 100 nM under setting [2] and 2.63 nM under setting [3]. Moreover, the inhibition at 0.1 µM (100 nM compound) was 90.3%.
As for `NC(=O)[C@]12CC3CC(C1)[C@@H](OC(=O)N1CC[C@@H](Oc4ccc(C(F)(F)F)cn4)C1)C(C3)C2` [EXAMPLE 5, (R)-(trans-(1-carbamoyl-4-adamantyl)) 3-(5-(trifluoromethyl)pyridin-2-yloxy)pyrrolidine-1-carboxylate], the IC50 runs as follows: under setting [2], < 100 nM; under setting [3], 0.99 nM. Also, the inhibition at 0.1 µM (100 nM compound) is 94.9%.
Take `NC(=O)[C@]12CC3CC(C1)[C@@H](OC(=O)N1CC[C@H](Oc4ccc(C(F)(F)F)cn4)C1)C(C3)C2` [EXAMPLE 6, (S)-(trans-(1-carbamoyl-4-adamantyl)) 3-(5-(trifluoromethyl)pyridin-2-yloxy)pyrrolidine-1-carboxylate]: the IC50 was < 100 nM under setting [2] and 0.54 nM under setting [3]. Besides, the inhibition at 0.1 µM (100 nM compound) was 96.9%.
With `COC(=O)C1(c2ccccc2)CCN(C(=O)OC2C3CC4CC(C3)CC2C4)CC1` (stereo not shown) [EXAMPLE 11, 1-(2-adamantyl) 4-methyl 4-phenylpiperidine-1,4-dicarboxylate], the inhibition at 0.111 µM is 86.3%. Also, the IC50 (IC50 Range) is < 100 nM. Also, for the setting “read-out: IC50”, the IC50 stood at 6.65 nM.
With `CCOC(=O)C1(Cc2ccccc2OC)CCCN(C(=O)OC2C3CC4CC(C3)CC2C4)C1` (stereo not shown) [EXAMPLE 14, 1-(2-adamantyl) 3-ethoxycarbonyl-3-(2-methoxybenzyl)piperidine-1-carboxylate], the inhibition at 0.111 µM worked out at 87.6%. In addition, the IC50 under setting [2] was < 100 nM. The IC50 (read-out: IC50) came to 7.15 nM.
For `COC(=O)COCC1(c2ccccc2)CCN(C(=O)OC2C3CC4CC(C3)CC2C4)CC1` (stereo not shown) [EXAMPLE 15, 2-adamantyl 4-((2-methoxy-2-oxoethoxy)methyl)-4-phenylpiperidine-1-carboxylate], under setting [4], the inhibition at 0.111 µM turned out to be 80.6%. Also, the IC50 reads like this: under setting [2], < 100 nM; under setting [3], 5.39 nM.
For `O=C(O)COCC1(c2ccccc2)CCN(C(=O)OC2C3CC4CC(C3)CC2C4)CC1` (stereo not shown) [EXAMPLE 16, 2-((1-(2-adamantyloxycarbonyl)-4-phenylpiperidin-4-yl)methoxy)acetic acid], the inhibition at 0.111 µM under setting [4] came out at 72.3%. Moreover, the half-maximal inhibitory concentration (IC50) is < 100 nM under setting [2] and 43.8 nM under setting [3].
In the case of `Cn1c(=O)ccc2cc(C3CCN(C(=O)OC4C5CC6CC(C5)CC4C6)C3)ccc21` (stereo not shown) [EXAMPLE 17, 2-adamantyl 3-(1-methyl-2-oxo-1,2-dihydroquinolin-6-yl)pyrrolidine-1-carboxylate], the IC50 is < 100 nM under setting [2] and 1.96 nM under setting [3]. The inhibition at 0.1 µM (100 nM compound) came out at 94.2%.
